Data on one molecule can be found in US20170009266A1, “PROCESS FOR THE ATTACHMENT OF A GALNAC MOIETY COMPRISING A (HETERO)ARYL GROUP TO A GLCNAC MOIETY, AND PRODUCT OBTAINED THEREBY” (SYNAFFIX B.V., priority 2014, published 2017).

The structures appear in SMILES notation. Where a chain is given by its changes, count along the chain named.

One test has as its target T1, Gal-T1(Y289G) (Bos taurus, UniProt P08037, I205M/L206V/P187L/V158I/Y289G).
T1 construct: host or cells: CHO K1
T1 sequence (P08037 74-402 V158I/P187L/I205M/L206V/Y289G): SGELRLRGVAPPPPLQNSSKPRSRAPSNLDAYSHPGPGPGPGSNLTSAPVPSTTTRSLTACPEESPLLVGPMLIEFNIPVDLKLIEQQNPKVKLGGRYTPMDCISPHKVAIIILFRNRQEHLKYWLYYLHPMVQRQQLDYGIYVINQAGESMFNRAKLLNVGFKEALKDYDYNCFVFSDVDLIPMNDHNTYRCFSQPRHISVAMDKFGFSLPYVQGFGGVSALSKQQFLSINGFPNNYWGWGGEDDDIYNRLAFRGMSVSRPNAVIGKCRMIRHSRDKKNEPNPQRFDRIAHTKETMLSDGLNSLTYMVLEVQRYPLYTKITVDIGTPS
Kind of test: Glycosyltransfer to trimmed trastuzumab with Gal-T1(Y289G) expressed in CHO. The test is classed as biochemical, bovine. Conditions: trimmed trastuzumab 10 mg/mL; UDP derivative 5 mM; enzyme 0.5 mg/mL; pH 8.0, 30° C. overnight. The text has this:
(§1) A set of Gal-T 1 mutants encoding residues 74-402 of bovine Gal-T 1 were transiently expressed in CHO K1 cells by Evitria (Zurich, Switzerland) which include the Gal-T1 single mutants Y289L (represented by SEQ ID NO: 26), Y289F (represented by SEQ ID NO: 27), Y289M (represented by SEQ ID NO: 28), Y289V (represented by SEQ ID NO: 29), Y289A (represented by SEQ ID NO: 30), and Y289G (represented by SEQ ID NO: 31), and the Gal-T1 double mutants Y289L,C342T (represented by SEQ ID NO: 32), and Y289M,C342T (represented by SEQ ID NO: 33). The mutants were purified using a cation exchange column (Source 15S HR16/10 column, GE Healthcare) as described above. Purified proteins were analyzed by SDS-PAGE.
Trimmed trastuzumab (10 mg/mL, […] obtained by Endo S treatment of trastuzumab, was incubated with the 4-azido-3,5-difluorobenzoyl derivative of UDP-galactosamine (23, 5 mM) and one of the Gal-T1 single mutants Y289L, Y289M, Y289A or Y289G (expressed in CHO as described above) (0.5 mg/mL) in 10 mM MnCl2 and 25 mM Tris-HCl pH 8.0 at 30° C. overnight. Mass spectral analysis of the reduced sample indicated a partial conversion of the core GlcNac(Fuc)-substituted trastuzumab heavy chain (49504 Da) into product 30 (49818 to 49825 Da, 20 to 50% of total heavy chain depending on the Gal-T1 mutant used), resulting from transfer of 23 to core GlcNAc(Fuc)-substituted trastuzumab heavy chain. […]

In the next test the target is T2, Gal-T1(Y289L,C342T) (Bos taurus, UniProt P08037, C342T/Y289L).
T2 construct: host or cells: CHO K1
T2 sequence (P08037 74-402 V158I/P187L/I205M/L206V/Y289L/C342T): T1 sequence (P08037 74-402 V158I/P187L/I205M/L206V/Y289G) with G216L, C269T
Kind of test: Glycosyltransfer to trimmed trastuzumab with Gal-T1(Y289L,C342T) expressed in CHO. The conditions noted are these: trimmed trastuzumab 10 mg/mL; UDP derivative 5 mM; enzyme 2.0 mg/mL; pH 8.0, 30° C. overnight. The test is classed as biochemical, bovine. Here is the method: A solution of 20 μg (modified) IgG was incubated for 1 hour at 37° C. with Fabricator™ (commercially available from Genovis, Lund, Sweden) (1.25 U/μL) in phosphate-buffered saline (PBS) pH 6.6 in a total volume of 10 μL. Fabricator™-digested samples were washed trice with milliQ using an Amicon Ultra-0.5, Ultracel-10 Membrane (Millipore) resulting in a final sample volume of approximately 40 μL. The Fc/2 fragment was analyzed by electrospray ionization time-of-flight (ESI-TOF) on a JEOL AccuTOF. Deconvoluted spectra were obtained using Magtran software.
as §1, with “SDS-PAGE. […]” for “SDS-PAGE.”

As for `[N-]=[N+]=Nc1c(F)cc(C(=O)N[C@H]2[C@@H](OP(=O)(O)OP(=O)(O)OC[C@H]3O[C@@H](n4ccc(=O)[nH]c4=O)[C@H](O)[C@@H]3O)O[C@H](CO)[C@H](O)[C@@H]2O)cc1F` [Compound 23, 4-azido-3,5-difluorobenzoyl Derivative of UDP-GalNH2], the observed conversion entry on Gal-T1(Y289G) was “approximately 20%”. The “conversion of core GlcNAc(Fuc)-substituted trastuzumab into product” value at Gal-T1(Y289L,C342T) is given as “complete conversion”.
